Reference: the supplement of paper PMC10307832

What was measured:
Assay in all cases: relative viability (nuclei count vs DMSO), 5 days (fraction); higher = more cells survive
[1] = compound: Cc1ccc(F)c(NC(=O)Nc2ccc(-c3cccc4[nH]nc(N)c34)cc2)c1 [Linifanib] + Cc1nc(Nc2ncc(C(=O)Nc3c(C)cccc3Cl)s2)cc(N2CCN(CCO)CC2)n1 [Dasatinib] (partner 0.075 µM)
Method in brief: (§1)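 The day after seeding in 1536-well plates, lung cancer cell lines were treated by pin tool with a single drug, or with a fixed anchor-drug dose together with five library-drug doses (not always all listed) in √10 steps. After 5 days, a combined fix-and-stain solution (final 0.05% Triton X-100, 1% formaldehyde, 1 ug/ml Hoechst) was added. Nuclei counted on 4× images gave relative viability as treated counts over vehicle counts, reported as the median of duplicate plates.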

[2] = compound: Cc1ccc(F)c(NC(=O)Nc2ccc(-c3cccc4[nH]nc(N)c34)cc2)c1 [Linifanib] + CC(=O)c1c(C)c2cnc(Nc3ccc(N4CCNCC4)cn3)nc2n(C2CCCC2)c1=O [Palbociclib] (partner 0.5 µM)
Method in brief: as §1

[3] = compound: Cc1ccc(F)c(NC(=O)Nc2ccc(-c3cccc4[nH]nc(N)c34)cc2)c1 [Linifanib] + CS(=O)(=O)CCNCc1ccc(-c2ccc3ncnc(Nc4ccc(OCc5cccc(F)c5)c(Cl)c4)c3c2)o1 [Lapatinib] (partner 2 µM)
Method in brief: as §1

[4] = compound: Cc1ccc(F)c(NC(=O)Nc2ccc(-c3cccc4[nH]nc(N)c34)cc2)c1 [Linifanib] + Cc1nc(NC(=O)N2CCC[C@H]2C(N)=O)sc1-c1ccnc(C(C)(C)C(F)(F)F)c1 [Alpelisib] (partner 2 µM)
Method in brief: as §1

[5] = compound: Cc1ccc(F)c(NC(=O)Nc2ccc(-c3cccc4[nH]nc(N)c34)cc2)c1 [Linifanib] + CS(=O)(=O)N1CCN(Cc2cc3nc(-c4cccc5[nH]ncc45)nc(N4CCOCC4)c3s2)CC1 [Pictilisib] (partner 1 µM)
Method in brief: as §1

[6] = compound: Cc1ccc(F)c(NC(=O)Nc2ccc(-c3cccc4[nH]nc(N)c34)cc2)c1 [Linifanib] + CC(=O)Nc1cccc(-n2c(=O)n(C3CC3)c(=O)c3c(Nc4ccc(I)cc4F)n(C)c(=O)c(C)c32)c1 [Trametinib] (partner 0.02 µM)
Method in brief: as §1

NCI-H1666
relative viability ([1]; first compound 0.03162 µM): 0.856 | relative viability ([1]; first compound 0.1 µM): 0.833 | relative viability ([1]; first compound 0.3162 µM): 0.779 | relative viability ([2]; first compound 0.03162 µM): 0.649 | relative viability ([2]; first compound 0.1 µM): 0.647 | relative viability ([2]; first compound 0.3162 µM): 0.693 | relative viability ([3]; first compound 0.03162 µM): 0.792 | relative viability ([3]; first compound 0.1 µM): 0.649 | relative viability ([3]; first compound 0.3162 µM): 0.705 | relative viability ([4]; first compound 0.03162 µM): 0.951 | relative viability ([4]; first compound 0.1 µM): 1.15 | relative viability ([4]; first compound 0.3162 µM): 1.1 | relative viability ([5]; first compound 0.03162 µM): 0.492 | relative viability ([5]; first compound 0.1 µM): 0.419 | relative viability ([5]; first compound 0.3162 µM): 0.402 | relative viability ([6]; first compound 0.03162 µM): 0.851 | relative viability ([6]; first compound 0.1 µM): 0.878 | relative viability ([6]; first compound 0.3162 µM): 0.842

EKVX
relative viability ([1]; first compound 0.03162 µM): 0.662 | relative viability ([1]; first compound 0.1 µM): 0.662 | relative viability ([1]; first compound 0.3162 µM): 0.547 | relative viability ([2]; first compound 0.03162 µM): 0.447 | relative viability ([2]; first compound 0.1 µM): 0.383 | relative viability ([2]; first compound 0.3162 µM): 0.415 | relative viability ([3]; first compound 0.03162 µM): 0.209 | relative viability ([3]; first compound 0.1 µM): 0.24 | relative viability ([3]; first compound 0.3162 µM): 0.222 | relative viability ([4]; first compound 0.03162 µM): 0.9 | relative viability ([4]; first compound 0.1 µM): 1.14 | relative viability ([4]; first compound 0.3162 µM): 0.831 | relative viability ([5]; first compound 0.03162 µM): 0.508 | relative viability ([5]; first compound 0.1 µM): 0.512 | relative viability ([5]; first compound 0.3162 µM): 0.454 | relative viability ([6]; first compound 0.03162 µM): 0.381 | relative viability ([6]; first compound 0.1 µM): 0.411 | relative viability ([6]; first compound 0.3162 µM): 0.392

BEN
relative viability ([1]; first compound 0.03162 µM): 0.318 | relative viability ([1]; first compound 0.1 µM): 0.34 | relative viability ([1]; first compound 0.3162 µM): 0.316 | relative viability ([2]; first compound 0.03162 µM): 0.471 | relative viability ([2]; first compound 0.1 µM): 0.521 | relative viability ([2]; first compound 0.3162 µM): 0.438 | relative viability ([3]; first compound 0.03162 µM): 0.6 | relative viability ([3]; first compound 0.1 µM): 0.767 | relative viability ([3]; first compound 0.3162 µM): 0.713 | relative viability ([4]; first compound 0.03162 µM): 0.963 | relative viability ([4]; first compound 0.1 µM): 1.11 | relative viability ([4]; first compound 0.3162 µM): 0.992 | relative viability ([5]; first compound 0.03162 µM): 0.516 | relative viability ([5]; first compound 0.1 µM): 0.606 | relative viability ([5]; first compound 0.3162 µM): 0.581 | relative viability ([6]; first compound 0.03162 µM): 0.929 | relative viability ([6]; first compound 0.1 µM): 0.946 | relative viability ([6]; first compound 0.3162 µM): 1.1

NCI-H322M
relative viability ([1]; first compound 0.03162 µM): 0.253 | relative viability ([1]; first compound 0.1 µM): 0.256 | relative viability ([1]; first compound 0.3162 µM): 0.216 | relative viability ([2]; first compound 0.03162 µM): 0.488 | relative viability ([2]; first compound 0.1 µM): 0.487 | relative viability ([2]; first compound 0.3162 µM): 0.441 | relative viability ([3]; first compound 0.03162 µM): 0.582 | relative viability ([3]; first compound 0.1 µM): 0.539 | relative viability ([3]; first compound 0.3162 µM): 0.537 | relative viability ([4]; first compound 0.03162 µM): 0.81 | relative viability ([4]; first compound 0.1 µM): 0.823 | relative viability ([4]; first compound 0.3162 µM): 0.754 | relative viability ([5]; first compound 0.03162 µM): 0.513 | relative viability ([5]; first compound 0.1 µM): 0.491 | relative viability ([5]; first compound 0.3162 µM): 0.557 | relative viability ([6]; first compound 0.03162 µM): 0.549 | relative viability ([6]; first compound 0.1 µM): 0.345 | relative viability ([6]; first compound 0.3162 µM): 0.506

SW 1573
relative viability ([1]; first compound 0.03162 µM): 0.578 | relative viability ([1]; first compound 0.1 µM): 0.931 | relative viability ([1]; first compound 0.3162 µM): 0.539 | relative viability ([2]; first compound 0.03162 µM): 0.367 | relative viability ([2]; first compound 0.1 µM): 0.448 | relative viability ([2]; first compound 0.3162 µM): 0.366 | relative viability ([3]; first compound 0.03162 µM): 1.27 | relative viability ([3]; first compound 0.1 µM): 1.27 | relative viability ([3]; first compound 0.3162 µM): 1.15 | relative viability ([4]; first compound 0.03162 µM): 0.609 | relative viability ([4]; first compound 0.1 µM): 0.914 | relative viability ([4]; first compound 0.3162 µM): 0.657 | relative viability ([5]; first compound 0.03162 µM): 0.43 | relative viability ([5]; first compound 0.1 µM): 0.517 | relative viability ([5]; first compound 0.3162 µM): 0.417 | relative viability ([6]; first compound 0.03162 µM): 0.505 | relative viability ([6]; first compound 0.1 µM): 0.674 | relative viability ([6]; first compound 0.3162 µM): 0.563

HCC-366
relative viability ([1]; first compound 0.03162 µM): 0.554 | relative viability ([1]; first compound 0.1 µM): 0.648 | relative viability ([1]; first compound 0.3162 µM): 0.582 | relative viability ([2]; first compound 0.03162 µM): 0.398 | relative viability ([2]; first compound 0.1 µM): 0.427 | relative viability ([2]; first compound 0.3162 µM): 0.373 | relative viability ([3]; first compound 0.03162 µM): 1.02 | relative viability ([3]; first compound 0.1 µM): 1.12 | relative viability ([3]; first compound 0.3162 µM): 0.895 | relative viability ([4]; first compound 0.03162 µM): 0.533 | relative viability ([4]; first compound 0.1 µM): 0.664 | relative viability ([4]; first compound 0.3162 µM): 0.357 | relative viability ([5]; first compound 0.03162 µM): 0.148 | relative viability ([5]; first compound 0.1 µM): 0.21 | relative viability ([5]; first compound 0.3162 µM): 0.214 | relative viability ([6]; first compound 0.03162 µM): 0.4 | relative viability ([6]; first compound 0.1 µM): 0.391 | relative viability ([6]; first compound 0.3162 µM): 0.399

A-427
relative viability ([1]; first compound 0.03162 µM): 0.715 | relative viability ([1]; first compound 0.1 µM): 0.835 | relative viability ([1]; first compound 0.3162 µM): 0.798 | relative viability ([2]; first compound 0.03162 µM): 0.54 | relative viability ([2]; first compound 0.1 µM): 0.548 | relative viability ([2]; first compound 0.3162 µM): 0.507 | relative viability ([3]; first compound 0.03162 µM): 1.06 | relative viability ([3]; first compound 0.1 µM): 1.01 | relative viability ([3]; first compound 0.3162 µM): 0.955 | relative viability ([4]; first compound 0.03162 µM): 1.13 | relative viability ([4]; first compound 0.1 µM): 1.16 | relative viability ([4]; first compound 0.3162 µM): 1.09 | relative viability ([5]; first compound 0.03162 µM): 0.796 | relative viability ([5]; first compound 0.1 µM): 0.724 | relative viability ([5]; first compound 0.3162 µM): 0.711 | relative viability ([6]; first compound 0.03162 µM): 0.755 | relative viability ([6]; first compound 0.1 µM): 0.806 | relative viability ([6]; first compound 0.3162 µM): 0.836

NCI-H838
relative viability ([1]; first compound 0.03162 µM): 0.286 | relative viability ([1]; first compound 0.1 µM): 0.282 | relative viability ([1]; first compound 0.3162 µM): 0.27 | relative viability ([2]; first compound 0.03162 µM): 0.22 | relative viability ([2]; first compound 0.1 µM): 0.223 | relative viability ([2]; first compound 0.3162 µM): 0.23 | relative viability ([3]; first compound 0.03162 µM): 1.01 | relative viability ([3]; first compound 0.1 µM): 1.11 | relative viability ([3]; first compound 0.3162 µM): 0.933 | relative viability ([4]; first compound 0.03162 µM): 0.903 | relative viability ([4]; first compound 0.1 µM): 1.07 | relative viability ([4]; first compound 0.3162 µM): 0.932 | relative viability ([5]; first compound 0.03162 µM): 0.464 | relative viability ([5]; first compound 0.1 µM): 0.466 | relative viability ([5]; first compound 0.3162 µM): 0.458 | relative viability ([6]; first compound 0.03162 µM): 0.528 | relative viability ([6]; first compound 0.1 µM): 0.554 | relative viability ([6]; first compound 0.3162 µM): 0.521

NCI-H1355
relative viability ([1]; first compound 0.03162 µM): 0.76 | relative viability ([1]; first compound 0.1 µM): 0.859 | relative viability ([1]; first compound 0.3162 µM): 0.697 | relative viability ([2]; first compound 0.03162 µM): 0.398 | relative viability ([2]; first compound 0.1 µM): 0.411 | relative viability ([2]; first compound 0.3162 µM): 0.389 | relative viability ([3]; first compound 0.03162 µM): 1.04 | relative viability ([3]; first compound 0.1 µM): 0.934 | relative viability ([3]; first compound 0.3162 µM): 1.01 | relative viability ([4]; first compound 0.03162 µM): 0.81 | relative viability ([4]; first compound 0.1 µM): 0.823 | relative viability ([4]; first compound 0.3162 µM): 0.794 | relative viability ([5]; first compound 0.03162 µM): 0.463 | relative viability ([5]; first compound 0.1 µM): 0.401 | relative viability ([5]; first compound 0.3162 µM): 0.433 | relative viability ([6]; first compound 0.03162 µM): 0.407 | relative viability ([6]; first compound 0.1 µM): 0.497 | relative viability ([6]; first compound 0.3162 µM): 0.404
